Reference: US11795457B2, “Compositions and methods for treatment of Friedreich's Ataxia” (The Board of Regents of The University of Texas System, priority 2014, dated 2023)
Where two headings read alike, the source gives them in different places. Oligonucleotides are written 5' to 3', each unit as a sugar letter and its base; * is a phosphorothioate linkage, no mark a phosphodiester; rarer units and linkages stand in square brackets, end groups in braces. Plain capitals give the bases only. l = locked nucleic acid (LNA); d = 2'-deoxy (DNA)

Legend:
FXN mRNA = FXN mRNA expression by quantitative PCR in FRDA patient-derived fibroblast cells; type: cell-based, human; conditions: GM03816 cells, 5 μM, averaged quadruplicate experiments (FIG. 2B)
Experimental: Tissue culture and transfection of synthetic nucleic acids. Fibroblast cells (Coriell Institute, GM03816 and GM02513) were cultured in minimum essential medium (MEM) supplemented with 10% FBS and 1% NEAA. All cells were grown at 37° C. in 5% Co2. Lipofectamine RNAiMAX (Invitrogen) was used to transfect siRNAs or LNA following the manufacturer's recommended protocol in OptiMEM low serum medium (Invitrogen). Growth media was changed to full medium after 24 h. Transfected cells were harvested 72 h after transfection for RNA extraction and qPCR analyses, and 96 h after transfection for western blot analysis. Sequences of siRNAs and RNAs used in these studies are listed in Table S1 and Table S2, respectively. Quantitative PCR. Identical volumes of RNA (representing approximately the same number of cells and ranging from 1-2 μg of RNA) were treated with 2 units of DNase I (Worthington) in DNase I buffer (10 mM Tris-HCl, pH 7.0, 10 mM NaCl, 2 mM MgCl2, 0.5 mM CaCl2)) for 15 min at room temperature to degrade any genomic DNA contamination. Afterwards, DNase I heat-inactivated at 75° C. for 10 min. Treated RNAs were reverse-transcribed using the High Capacity cDNA Reverse Transcription Kit (Applied Biosystems). Quantitative PCR (qPCR) was performed using SYBR Supermix (Biorad) with ˜50 ng of cDNA as template. Data were normalized relative to measured HPRT levels. […]

FXN protein = FXN protein expression by western blot in FRDA patient-derived fibroblast cells; type: cell-based, human; conditions: GM03816 cells; for FXN protein expression, LNAs: 12.5 nM, day 4 (FIGS. 4B-E)
Experimental: (§1) Tissue culture and transfection of synthetic nucleic acids. Fibroblast cells (Coriell Institute, GM03816 and GM02513) were cultured in minimum essential medium (MEM) supplemented with 10% FBS and 1% NEAA. All cells were grown at 37° C. in 5% Co2. Lipofectamine RNAiMAX (Invitrogen) was used to transfect siRNAs or LNA following the manufacturer's recommended protocol in OptiMEM low serum medium (Invitrogen). Growth media was changed to full medium after 24 h. Transfected cells were harvested 72 h after transfection for RNA extraction and qPCR analyses, and 96 h after transfection for western blot analysis. Sequences of siRNAs and RNAs used in these studies are listed in Table S1 and Table S2, respectively.
Western blot analysis. Cell extracts were prepared using lysis buffer supplemented with 1% Protease Inhibitor Cocktail Set I (Calbiochem) as described previously (Punga & Buhler, 2010). Protein was separated on 4-20% gradient or 15% SDS-PAGE TGX pre-cast gels (BioRad). After gel electrophoresis, proteins were transferred to nitrocellulose membrane (Hybond-C Extra, GE Healthcare Life Sciences) at 100 V for 45-60 min. Membranes were blocked for 30 min at room temperature with 5% milk protein in PBS+0.05% TWEEN-20 (PBST).
Blocked membranes were incubated with the primary antibodies at 4° C. in PBST and 5% milk with rocking overnight: anti-FXN at 1:300 (Abcam, ab110328), anti-tubulin at 1:6000-10000 (Sigma-Aldrich, T5201). After primary antibody incubation, membranes were washed 3 times for 5 min at room temperature with PBST then incubated for 30-45 min at room temperature with HRP-conjugated anti-mouse (Jackson Laboratories, 715-035-150) in PBST+5% milk. Membranes were washed again 3× for 15 min in PBST at room temperature, then protein bands visualized using SuperSignal West Pico Chemiluminescent Substrate (Thermo Scientific). For quantification of protein levels from Western blots of cellular fractions, films were scanned and bands quantified using ImageJ.
HDAC inhibitor and mRNA stability assay. Histone deacetylase inhibitor BML-210 (Abcam) (5 μM) was applied to FRDA fibroblast cells (GM03816) by following the procedure described in Herman et al (2006)^27. Cells were collected for qPCR and Western blot analyses as mentioned above. For mRNA stability assay, cells were transfected with siGAA or CM as above, and 5 μg/mL actinomycin D (Sigma) was added with fresh media 3 day after transfection, and cells were collected at the indicated time points for RNA extraction and qPCR analysis.

[1] = system: histone H3 and H4 acetylation, FXN mRNA and protein; conditions: lymphoid cells or primary lymphocytes; cited from earlier work
frataxin protein = conditions: patients, daily oral administration, cited from earlier work
Tm of siRNA duplex = type: physicochemical
FXN = FXN expression in FRDA patient-derived cells, mRNA or protein not specified; type: cell-based, human; conditions: GM03816 cells, 25 nM (FIG. 3B)
Experimental: as §1

[2] = system: interferon responsive genes; assay: qPCR of interferon responsive genes (off-target); type: cell-based, human; conditions: GM03816 cells, 25 nM, 3 days after transfection, compared with CM control
Experimental: as §1
Quantitative PCR. Identical volumes of RNA (representing approximately the same number of cells and ranging from 1-2 μg of RNA) were treated with 2 units of DNase I (Worthington) in DNase I buffer (10 mM Tris-HCl, pH 7.0, 10 mM NaCl, 2 mM MgCl2, 0.5 mM CaCl2)) for 15 min at room temperature to degrade any genomic DNA contamination. Afterwards, DNase I heat-inactivated at 75° C. for 10 min. Treated RNAs were reverse-transcribed using the High Capacity cDNA Reverse Transcription Kit (Applied Biosystems). Quantitative PCR (qPCR) was performed using SYBR Supermix (Biorad) with ˜50 ng of cDNA as template. Data were normalized relative to measured HPRT levels.

## Nc1ccccc1NC(=O)CCCCCCC(=O)Nc1ccccc1 [BML210]
FXN mRNA
  FXN mRNA levels: did not reveal a significant increase
FXN protein; 5 μM, averaged quadruplicate experiments (FIG. 2C)
  FXN protein levels: did not reveal a significant increase
[1]
  Acetylation of histone H3 and H4 and FXN mRNA and protein: increased acetylation of histone H3 and H4 leading to upregulation of FXN mRNA and protein

## NC(=O)c1cccnc1 [nicotinamide]
Frataxin protein; 3.8 g
  Increase of frataxin protein concentration: 1.5 times
Frataxin protein; 7-5 g
  Increase of frataxin protein concentration: doubling

## PS-LNA11: LNA with PS backbone complementary to antisense RNA, GAAGAAGAAGAAGAAGAAG (SEQ ID NO: 33) (dG*lA*lA*dG*lA*lA*dG*lA*lA*dG*lA*lA*dG*lA*lA*dG*lA*lA*dG)
FXN protein
  FXN protein expression, LNAs: inert

## PS-LNA12: LNA with PS backbone complementary to antisense RNA, AAGAAGAAGAAGAAGAAGA (SEQ ID NO: 34) (dA*dA*lG*dA*dA*lG*dA*dA*lG*dA*dA*lG*dA*dA*lG*dA*dA*lG*dA)
FXN protein
  FXN protein expression, LNAs: inert

## PS-LNA13: LNA with PS backbone complementary to antisense RNA, AGAAGAAGAAGAAGAAGAA (SEQ ID NO: 35) (lA*dG*lA*lA*dG*lA*lA*dG*lA*lA*dG*lA*lA*dG*lA*lA*dG*lA*lA)
FXN protein
  FXN protein expression, LNAs: inert

## scramble: duplex RNA in which the sequences of siGAA and siAAG are mixed: ss GAGAAAGAGAAAAGGAAAGdTdT (SEQ ID NO: 15), as SEQ ID NO: 16 (sense GAGAAAGAGAAAAGGAAAGNN; antisense CUUUCCUUUUCUCUUUCUCNN; dTdT overhangs; modified_base (20)..(21) n = thymidine; (20)..(21) n is a, c, g, t or u) [reference compound]
Tm of siRNA duplex
  Tm for duplex: 66.13 ^+C

## siAAG5mm: similar to siAAG but has five mismatches: ss AACAATAATACGCAGAAGAdTdT (SEQ ID NO: 17), as SEQ ID NO: 18 (sense AACAATAATACGCAGAAGANN; antisense UCUUCUGCGUAUUAUUGUUNN; dTdT overhangs; modified_base (20)..(21) n = thymidine; (20)..(21) n is a, c, g, t or u) [reference compound]
Tm of siRNA duplex
  Tm for duplex: 63.24 ^+C

## siAAG: duplex RNA: ss AAGAAGAAGAAGAAGAAGAdTdT (SEQ ID NO: 2), as UCUUCUUCUUCUUCUUCUUdTdT (SEQ ID NO: 10) (sense AAGAAGAAGAAGAAGAAGANN; antisense UCUUCUUCUUCUUCUUCUUNN; dTdT overhangs; modified_base (20)..(21) n = thymidine; (20)..(21) n is a, c, g, t or u)
Tm of siRNA duplex
  Tm for duplex: 64.67 ^+C

## siAGA: duplex RNA: ss AGAAGAAGAAGAAGAAGAAdTdT (SEQ ID NO: 11), as UUCUUCUUCUUCUUCUUCUdTdT (SEQ ID NO: 12) (sense AGAAGAAGAAGAAGAAGAANN; antisense UUCUUCUUCUUCUUCUUCUNN; dTdT overhangs; modified_base (20)..(21) n = thymidine; (20)..(21) n is a, c, g, t or u)
Tm of siRNA duplex
  Tm for duplex: 64.3 ^+C

## siExon2: duplex siRNA that targets FXN exon: ss GAGUGUCUAUUUGAUGAAUdTdT (SEQ ID NO: 13), as SEQ ID NO: 14 (sense GAGUGUCUAUUUGAUGAAUNN; antisense AUUCAUCAAAUAGACACUCNN; dTdT overhangs; modified_base (20)..(21) n = thymidine; (20)..(21) n is a, c, g, t or u) [reference compound]
Tm of siRNA duplex
  Tm for duplex: 64.53 ^+C

## siExon3: positive control for transfection efficiency targeting exon 3 of FXN: ss GACCACCUAUGAAAGACUAdTdT (SEQ ID NO: 21), as SEQ ID NO: 22 (sense GACCACCUAUGAAAGACUANN; antisense UAGUCUUUCAUAGGUGGUCNN; dTdT overhangs; modified_base (20)..(21) n = thymidine; (20)..(21) n is a, c, g, t or u) [reference compound]
Tm of siRNA duplex
  Tm for duplex: 73.65 ^+C

## siGAA9,10mm: anti-GAA duplex RNA with central mismatches on both strands: ss GAAGAAGAUCAAGAAGAAGdTdT (SEQ ID NO: 19), as CUUCUUCUUAGUCUUCUUCdTdT (SEQ ID NO: 20) (sense GAAGAAGAUCAAGAAGAAGNN; antisense CUUCUUCUUAGUCUUCUUCDTDT; dTdT overhangs; modified_base (20)..(21) n = thymidine; (20)..(21) n is a, c, g, t or u)
FXN; listed as siGAA 9.10 mm
  Activation of FXN expression by duplex with central mismatches: activates FXN expression at a level similar to the analogous fully complementary duplex RNA
FXN; listed as siGAA9.10 mm
  Activation of FXN expression by duplex with central mismatches: activated FXN expression as well as fully complementary duplexes siGAA or siAAG
Tm of siRNA duplex
  Tm for duplex: 54.4 ^+C

## siGAA: duplex RNA: ss GAAGAAGAAGAAGAAGAAGdTdT (SEQ ID NO: 1), as CUUCUUCUUCUUCUUCUUCdTdT (SEQ ID NO: 9) (sense GAAGAAGAAGAAGAAGAAGNN; antisense CUUCUUCUUCUUCUUCUUCNN; dTdT overhangs; modified_base (20)..(21) n = thymidine; (20)..(21) n is a, c, g, t or u)
FXN protein; day 4 (FIG. 1F)
  FXN protein expression (dose response profile): upregulation of FXN protein expression
[2]
  mRNA expression of interferon responsive genes: does not induce expression of interferon responsive genes
Tm of siRNA duplex
  Tm for duplex: 65.64 ^+C
